Experimental data taken from patent US12577245B2, “Sulfonyl benzamide derivatives as Bcl-2 inhibitors” (ASCENTAGE PHARMA (SUZHOU) CO., LTD., priority 2021, dated 2026).

Columns and labels:
Bcl-2 WT = Bcl-2 WT (Homo sapiens, UniProt P10415); assay: Bcl-2 WT inhibition, fluorescence polarization (Flu-BIM tracer) binding assay; conditions: FP; 20 nM Bcl2, 5 nM Flu-BIM, 1 h incubation; read-out: Bcl-2 w.t. (FP)
MV-4-11 cells = assay: CCK-8 cell viability assay in MV-4-11 cells; assay type: cell-based; conditions: Homo sapiens, MV4-11, 72 h, 10% FBS, 3 days
Experimental: MV-4-11 cells were obtained from University of Michigan. Cells were maintained in the RPMI-1640 medium with 10% FBS and 1% P/S at 37° C. and an atmosphere of 5% CO2.
• The effect of representative Compounds of the Disclosure on cell viability was determined using Cell Counting Kit-8 (CCK-8) assay (Shanghai Life iLab Biotech) according to the manufacturer's instructions. Each tested compound was serially diluted in culture medium, and 100 μL of the compound dilution was added to the corresponding well of the cell plate. 100 μL of MV-4-11 cell suspension (20000 cells/well) in culture medium were seeded into 96-well plates. The cells were incubated at 37° C. in an atmosphere of 5% CO2 for 3 days. At the end of 3 days, 20 μL of CCK-8 solution was added to each well of the plate and incubated for 1-4 hours. The plates were read at 450 nm on the Biotek plate reader. The readings were normalized to the vehicle cells, and the IC50 was calculated using GraphPad Prism 8 software.

RS4; 11Bcl-2-G101V cells = assay: CellTiter-Glo (CTG) cell viability assay in RS4;11-Bcl-2-G101V cells; assay type: cell-based; conditions: 72 h, 10% FBS, 3 days
Experimental: RS4; 11Bcl-2-G101V, RS4; 11Bcl-2-D103E, RS4; 11Bcl-2-V156D and RS4; 11Bcl-2-G101V-D103E cells were obtained from Cobioer Biosciences. Cells were maintained in the RPMI-1640 medium with 10% FBS, 1% P/S and puromycin (1 μg/mL) at 37° C. and an atmosphere of 5% CO2.
• The effect of representative Compounds of the Disclosure on cell viability was determined using CellTiter-Glo® (CTG) luminescent cell viability assay (Promega, USA) according to the manufacturer's instructions. 95 μL of cell suspension (10000 cells/well) in culture medium were seeded into 96-well plates and cultured 4 hours. Each tested compound was serially diluted in blank culture medium, and 5 μL of the compound dilution was added to the corresponding well of the cell plate. After the addition of the tested compound, the cells were incubated at 37° C. in an atmosphere of 5% CO2 for 3 days. At the end of 3 days, 30 μL of CTG solution was added to each well of the plate and mix contents for 2 minutes on an orbital shaker. Allow the plate to incubate at room temperature for 15 mins to stabilize signal and record RLU on the Biotek plate reader. The readings were normalized to the vehicle cells, and the IC50 was calculated using GraphPad Prism 8 software.

Sequence of Bcl-2 WT (P10415 whole entry): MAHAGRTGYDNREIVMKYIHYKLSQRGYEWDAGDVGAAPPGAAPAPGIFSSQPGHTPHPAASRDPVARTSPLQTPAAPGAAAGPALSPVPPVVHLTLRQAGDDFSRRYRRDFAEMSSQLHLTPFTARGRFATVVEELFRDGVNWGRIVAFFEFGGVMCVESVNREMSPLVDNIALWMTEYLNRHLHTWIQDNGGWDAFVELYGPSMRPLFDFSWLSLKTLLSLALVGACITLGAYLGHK

SMILES | IC50 (Bcl-2 WT) | IC50 (MV-4-11 cells) | IC50 (RS4; 11Bcl-2-G101V cells)
CC1(C)CCC(CN2CCN(c3ccc(C(=O)NS(=O)(=O)c4ccc(NC[C@H]5COCCO5)c([N+](=O)[O-])c4)c(Oc4cnc5[nH]ccc5c4)c3)CC2)=C(c2cc(-c3ccc(Cl)cc3)cs2)C1 [Example 38, (S)—N-((4-(((1,4-dioxan-2-yl)methyl)amino)-3-nitrophenyl)sulfonyl)-2-((1H-pyrrolo[2,3-b]pyridin-5-yl)oxy)-4-(4-((2-(4-(4-chlorophenyl)thiophen-2-yl)-4,4-dimethylcyclohex-1-en-1-yl)methyl)piperazin-1-yl)benzamide] | 20.2 nM | 28 nM | 1640 nM
CC1(C)CCC(CN2CCN(c3ccc(C(=O)NS(=O)(=O)c4ccc(NC[C@H]5COCCO5)c([N+](=O)[O-])c4)c(Oc4cnc5[nH]ccc5c4)c3)CC2)=C(c2cc(-c3ccc(C(F)F)cc3)cs2)C1 [Example 48, (S)—N-((4-(((1,4-dioxan-2-yl)methyl)amino)-3-nitrophenyl)sulfonyl)-2-((1H-pyrrolo[2,3-b]pyridin-5-yl)oxy)-4-(4-((2-(4-(4-(difluoromethyl)phenyl)thiophen-2-yl)-4,4-dimethylcyclohex-1-en-1-yl)methyl)piperazin-1-yl)benzamide] | 20.2 nM | 9 nM | 810 nM
CC1(C)CCC(CN2CCN(c3ccc(C(=O)NS(=O)(=O)c4ccc(NC[C@H]5CC[C@](C)(O)CC5)c([N+](=O)[O-])c4)c(Oc4cnc5[nH]ccc5c4)c3)CC2)=C(c2cc(-c3cc(F)c(F)cc3F)cs2)C1 [Example 53, 2-((1H-pyrrolo[2,3-b]pyridin-5-yl)oxy)-4-(4-((4,4-dimethyl-2-(4-(2,4,5-trifluorophenyl)thiophen-2-yl)cyclohex-1-en-1-yl)methyl)piperazin-1-yl)-N-((4-((((1r,4r)-4-hydroxy-4-methylcyclohexyl)methyl)amino)-3-nitrophenyl)sulfonyl)benzamide] | 27.8 nM | 9 nM | 430 nM
CC1(C)CCC(CN2CCN(c3ccc(C(=O)NS(=O)(=O)c4ccc(NCC5CCOCC5)c([N+](=O)[O-])c4)c(Oc4cnc5[nH]ccc5c4)c3)CC2)=C(c2ccsc2CN2CCOCC2)C1 [Example 25, 2-((1H-pyrrolo[2,3-b]pyridin-5-yl)oxy)-4-(4-((4,4-dimethyl-2-(2-(morpholinomethyl)thiophen-3-yl)cyclohex-1-en-1-yl)methyl)piperazin-1-yl)-N-((3-nitro-4-(((tetrahydro-2H-pyran-4-yl)methyl)amino)phenyl)sulfonyl)benzamide] | 25.4 nM | 225 nM | 1810 nM
CC1(C)CCC(CN2CCN(c3ccc(C(=O)NS(=O)(=O)c4ccc(NCC5CCOCC5)c([N+](=O)[O-])c4)c(Oc4cnc5[nH]ccc5c4)c3)CC2)=C(c2ccsc2-c2ccccc2)C1 [Example 35, 2-((1H-pyrrolo[2,3-b]pyridin-5-yl)oxy)-4-(4-((4,4-dimethyl-2-(2-phenylthiophen-3-yl)cyclohex-1-en-1-yl)methyl)piperazin-1-yl)-N-((3-nitro-4-(((tetrahydro-2H-pyran-4-yl)methyl)amino)phenyl)sulfonyl)benzamide] | 40.4 nM | 799 nM | 6160 nM
CC(C)(O)Cc1ccc(-c2csc(C3=C(CN4CCN(c5ccc(C(=O)NS(=O)(=O)c6ccc(NC[C@H]7CC[C@](C)(O)CC7)c([N+](=O)[O-])c6)c(Oc6cnc7[nH]ccc7c6)c5)CC4)CCC(C)(C)C3)c2)c(F)c1 [Example 73, 2-((1H-pyrrolo[2,3-b]pyridin-5-yl)oxy)-4-(4-((2-(4-(2-fluoro-4-(2-hydroxy-2-methylpropyl)phenyl)thiophen-2-yl)-4,4-dimethylcyclohex-1-en-1-yl)methyl)piperazin-1-yl)-N-((4-((((1r,4r)-4-hydroxy-4-methylcyclohexyl)methyl)amino)-3-nitrophenyl)sulfonyl)benzamide] | 23.7 nM | 8 nM | 490 nM
CN(C)c1ccccc1-c1csc(C2=C(CN3CCN(c4ccc(C(=O)NS(=O)(=O)c5ccc(NC[C@H]6COCCO6)c([N+](=O)[O-])c5)c(Oc5cnc6[nH]ccc6c5)c4)CC3)CCC(C)(C)C2)c1 [Example 58, (S)—N-((4-(((1,4-dioxan-2-yl)methyl)amino)-3-nitrophenyl)sulfonyl)-2-((1H-pyrrolo[2,3-b]pyridin-5-yl)oxy)-4-(4-((2-(4-(2-(dimethylamino)phenyl)thiophen-2-yl)-4,4-dimethylcyclohex-1-en-1-yl)methyl)piperazin-1-yl)benzamide] | 20.1 nM | 178 nM | 3050 nM
CC1(C)CCC(CN2CCN(c3ccc(C(=O)NS(=O)(=O)c4ccc(NC[C@H]5COCCO5)c([N+](=O)[O-])c4)c(Oc4cnc5[nH]ccc5c4)c3)CC2)=C(c2cc(-c3c(F)cc(C(C)(C)O)cc3F)cs2)C1 [Example 64, (S)—N-((4-(((1,4-dioxan-2-yl)methyl)amino)-3-nitrophenyl)sulfonyl)-2-((1H-pyrrolo[2,3-b]pyridin-5-yl)oxy)-4-(4-((2-(4-(2,6-difluoro-4-(2-hydroxypropan-2-yl)phenyl)thiophen-2-yl)-4,4-dimethylcyclohex-1-en-1-yl)methyl)piperazin-1-yl)benzamide] | 16.4 nM | 7 nM | 30 nM
CC1(C)CCC(CN2CCN(c3ccc(C(=O)NS(=O)(=O)c4ccc(NC[C@H]5CC[C@](C)(O)CC5)c([N+](=O)[O-])c4)c(Oc4cnc5[nH]ccc5c4)c3)CC2)=C(c2cc(-c3c(F)cc(F)cc3F)cs2)C1 [Example 47, 2-((1H-pyrrolo[2,3-b]pyridin-5-yl)oxy)-4-(4-((4,4-dimethyl-2-(4-(2,4,6-trifluorophenyl)thiophen-2-yl)cyclohex-1-en-1-yl)methyl)piperazin-1-yl)-N-((4-((((1r,4r)-4-hydroxy-4-methylcyclohexyl)methyl)amino)-3-nitrophenyl)sulfonyl)benzamide] | – | 5 nM | 190 nM
CC(C)c1sccc1C1=C(CN2CCN(c3ccc(C(=O)NS(=O)(=O)c4ccc(NC[C@H]5COCCO5)c([N+](=O)[O-])c4)c(Oc4cnc5[nH]ccc5c4)c3)CC2)CCC(C)(C)C1 [Example 13, (S)—N-((4-(((1,4-dioxan-2-yl)methyl)amino)-3-nitrophenyl)sulfonyl)-2-((1H-pyrrolo[2,3-b]pyridin-5-yl)oxy)-4-(4-((2-(2-isopropylthiophen-3-yl)-4,4-dimethylcyclohex-1-en-1-yl)methyl)piperazin-1-yl)benzamide] | – | 25 nM | 1790 nM
CC1(C)CCC(CN2CCN(c3ccc(C(=O)NS(=O)(=O)c4ccc(NC[C@H]5COCCO5)c([N+](=O)[O-])c4)c(Oc4cnc5[nH]ccc5c4)c3)CC2)=C(c2cc(Nc3ccc(F)cc3F)cs2)C1 [Example 20, (S)—N-((4-(((1,4-dioxan-2-yl)methyl)amino)-3-nitrophenyl)sulfonyl)-2-((1H-pyrrolo[2,3-b]pyridin-5-yl)oxy)-4-(4-((2-(4-((2,4-difluorophenyl)amino)thiophen-2-yl)-4,4-dimethylcyclohex-1-en-1-yl)methyl)piperazin-1-yl)benzamide] | – | > 1000 nM | > 10000 nM
